# According to patent US10780127B2, “Method for producing fermented milk having high angiotensin converting enzyme inhibitory activity and method for producing physiologically active peptide” (NATIONAL UNIVERSITY CORPORATION TOTTORI UNIVERSITY, priority 2016, dated 2020):
# Where two headings read alike, the source gives them in different places. Peptide text beside a SMILES is read from it.
# Tests used:
# [1] = target: T1, ACE (Homo sapiens, UniProt P12821); conditions: reported value; read-out: IC50 value of YP for ACE; cited from earlier work
# [2] = target: T1, ACE; experiment: Reported IC50 value of YP for ACE; format: biochemical; conditions: corresponds to 720 μM; read-out: IC50 value of YP for ACE, corresponding mass concentration (converted)
# T1 sequence (P12821 30-1306, species assumed): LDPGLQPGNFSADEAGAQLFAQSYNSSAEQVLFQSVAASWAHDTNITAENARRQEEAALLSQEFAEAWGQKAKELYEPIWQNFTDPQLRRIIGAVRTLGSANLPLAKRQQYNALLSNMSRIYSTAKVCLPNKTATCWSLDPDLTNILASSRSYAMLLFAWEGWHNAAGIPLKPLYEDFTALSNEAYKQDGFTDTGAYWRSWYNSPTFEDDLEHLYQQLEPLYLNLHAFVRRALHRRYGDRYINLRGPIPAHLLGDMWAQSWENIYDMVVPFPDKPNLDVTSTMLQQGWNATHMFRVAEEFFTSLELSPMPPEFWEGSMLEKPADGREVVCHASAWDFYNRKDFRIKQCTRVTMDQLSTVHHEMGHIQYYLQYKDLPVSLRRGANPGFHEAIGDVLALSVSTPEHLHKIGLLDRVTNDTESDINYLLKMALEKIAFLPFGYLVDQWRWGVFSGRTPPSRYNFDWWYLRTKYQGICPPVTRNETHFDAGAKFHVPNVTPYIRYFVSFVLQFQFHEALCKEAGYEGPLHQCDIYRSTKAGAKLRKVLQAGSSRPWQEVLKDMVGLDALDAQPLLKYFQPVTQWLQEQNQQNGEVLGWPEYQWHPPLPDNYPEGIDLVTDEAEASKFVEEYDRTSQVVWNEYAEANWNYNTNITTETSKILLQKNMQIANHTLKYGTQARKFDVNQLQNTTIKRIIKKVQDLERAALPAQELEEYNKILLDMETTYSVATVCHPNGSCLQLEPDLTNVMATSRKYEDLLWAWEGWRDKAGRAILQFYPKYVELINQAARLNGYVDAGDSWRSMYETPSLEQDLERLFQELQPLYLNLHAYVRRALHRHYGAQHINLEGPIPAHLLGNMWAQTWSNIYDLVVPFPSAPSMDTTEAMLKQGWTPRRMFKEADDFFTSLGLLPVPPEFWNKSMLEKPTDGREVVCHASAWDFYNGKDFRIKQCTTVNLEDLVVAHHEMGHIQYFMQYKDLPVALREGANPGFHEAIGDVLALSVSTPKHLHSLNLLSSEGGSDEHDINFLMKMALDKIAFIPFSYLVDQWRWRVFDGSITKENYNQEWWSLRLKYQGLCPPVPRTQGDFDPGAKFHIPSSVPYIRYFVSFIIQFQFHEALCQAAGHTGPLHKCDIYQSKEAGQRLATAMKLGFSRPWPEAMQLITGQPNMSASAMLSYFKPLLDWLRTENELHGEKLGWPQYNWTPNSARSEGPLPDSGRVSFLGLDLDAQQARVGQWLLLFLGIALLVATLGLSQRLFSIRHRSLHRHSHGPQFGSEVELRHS
smiles,measurement,setting,value
"N[C@@H](Cc1ccc(O)cc1)C(=O)N1CCC[C@H]1C(=O)O [YP, Tyr-Pro] (H-Tyr-Pro-OH)",IC50,[1],720 µM
same,IC50,[2],719 µM
